This is an account of results in patent US10947252B2, “Inhibitors of KEAP1-Nrf2 protein-protein interaction” (Janssen Pharmaceutica NV, priority 2018, dated 2021).

pEC50, pKd: −log10 of the molar value.

The test system of assay [1] is Glo-Response ARE-luc2P HEK293 cell line. The assay can be described thus: ARE luciferase reporter cell-based assay.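 Also: luciferase signal tracks Nrf2 activation of the ARE once compounds disrupt KEAP1-Nrf2 binding, read with One-Glo reagent, DMSO serving as low control.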 The conditions noted are these: Homo sapiens, HEK293, 24 h, average of results obtained. (Reporter assays use an easily measured gene product as a stand-in for the process of interest.)
In assay [2] the target is Kelch domain of human KEAP1 (321-624 aa) (Homo sapiens (Human), UniProt Q14145). The assay can be described thus: KEAP1 KELCH ThermoFluor binding assay.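 Also: Ligand-induced melting temperature shift of E. coli-expressed KEAP1 Kelch protein, Kd estimated from concentration-response curves of ΔTm.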 The settings on record: KEAP Kelch […], 1,8-ANS, pH 7.0, average of results obtained, read-out: Tf Kd. In general terms: In DSF a fluorescence change marks the thermal transition of the protein.
Kelch domain of human KEAP1 (321-624 aa), sequence (Q14145 321-624): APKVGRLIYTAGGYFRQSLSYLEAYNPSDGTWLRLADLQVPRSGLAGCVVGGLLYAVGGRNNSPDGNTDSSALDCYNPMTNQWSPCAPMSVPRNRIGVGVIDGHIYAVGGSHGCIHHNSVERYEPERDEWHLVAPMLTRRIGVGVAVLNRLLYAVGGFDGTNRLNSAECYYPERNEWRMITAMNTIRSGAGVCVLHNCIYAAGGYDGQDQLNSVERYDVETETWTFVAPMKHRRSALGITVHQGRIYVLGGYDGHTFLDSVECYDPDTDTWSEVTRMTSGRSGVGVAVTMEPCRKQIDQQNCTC

Turning to `Cc1ccc([C@@H](CC(=O)O)c2ccn3c(C(F)F)nnc3c2C)cc1CN1CC2(CCOCC2)Oc2ncc(F)cc2S1(=O)=O` (single isomer, unassigned) [Example 534, (*R)-3-(3-(Difluoromethyl)-8-methyl-[1,2,4]triazolo[4,3-a]pyridin-7-yl)-3-(3-((8′-fluoro-1′,1′-dioxido-2,3,5,6-tetrahydrospiro[pyran-4,4′-pyrido[2,3-b][1,4,5]oxathiazepin]-2′(3′H)-yl)methyl)-4-methylphenyl)propanoic Acid], the pEC50 (in general, the negative decadic logarithm of the EC50, by convention in mol/L) in assay [1] is 7.00. In addition, the pKd (in general, the Kd on a negative log10 scale, so that one unit is a factor of ten) in assay [2] was more than 9.00.
In the same order, the values of `Cc1cnc2c(c1)S(=O)(=O)N(Cc1cc([C@@H](c3ccn4c(C5CC5)nnc4c3C)C(C)(C)C(=O)O)ccc1C)CC1(COC1)O2` (single isomer, unassigned) [Example 622, (*S)-3-(3-Cyclopropyl-8-methyl-[1,2,4]triazolo[4,3-a]pyridin-7-yl)-2,2-dimethyl-3-(4-methyl-3-((8′-methyl-1′,1′-dioxidospiro[oxetane-3,4′-pyrido[2,3-b][1,4,5]oxathiazepin]-2′(3′H)-yl)methyl)phenyl)propanoic Acid] are 5.49 and 5.60.
In the same order, the values of `Cc1ccc(C(CC(=O)O)c2ccn3c(C(F)(F)F)nnc3c2C)nc1CN1CC2CCCCN2c2ncc(Cl)cc2S1(=O)=O` (stereo not shown) [Example 518, 3-(6-((3-Chloro-5,5-dioxido-7,7a,8,9,10,11-hexahydro-6H-dipyrido[2,1-d:2′,3′-f][1,2,5]thiadiazepin-6-yl)methyl)-5-methylpyridin-2-yl)-3-(8-methyl-3-(trifluoromethyl)-[1,2,4]triazolo[4,3-a]pyridin-7-yl)propanoic Acid] are 8.46 and more than 9.00.
For `Cc1cnc2c(c1)S(=O)(=O)N(Cc1cc(C(CC(=O)O)c3ccn4c(C(F)(F)F)nnc4c3C)ccc1Cl)CC1CCCCN21` (stereo not shown) [Example 89, 3-(4-Chloro-3-(((*S)-3-methyl-5,5-dioxido-7,7a,8,9,10,11-hexahydro-6H-dipyrido[2,1-d:2′,3′-f][1,2,5]thiadiazepin-6-yl)methyl)phenyl)-3-(8-methyl-3-(trifluoromethyl)-[1,2,4]triazolo[4,3-a]pyridine-7-yl)propanoic Acid], the pEC50 in assay [1] was 8.16. Besides, the pKd in assay [2] was 11.27.
Regarding `COCCCNc1ccc2c(n1)OC1(CC1)CN(Cc1cc([C@H](CC(=O)O)c3ccn4c(C(F)(F)F)nnc4c3C)ccc1C)S2(=O)=O` (single isomer, unassigned) [Example 107, (*S)-3-(3-((7′-((3-Methoxypropyl)amino)-1′,1′-dioxidospiro[cyclopropane-1,4′-pyrido[2,3-b][1,4,5]oxathiazepin]-2′(3′H)-yl)methyl)-4-methylphenyl)-3-(8-methyl-3-(trifluoromethyl)-[1,2,4]triazolo[4,3-a]pyridine-7-yl)propanoic Acid], the pEC50 in assay [1] was 6.59. In addition, the pKd in assay [2] was more than 9.00.
For the molecule `Cc1ccc(C(CC(=O)O)c2ccc3c(nnn3C3CC3)c2C)cc1CN1C[C@@]2(C)CCCN2c2ncccc2S1(=O)=O` (mixture of isomers) [Example 221, (R/S)-3-(1-Cyclopropyl-4-methyl-1H-benzo[d][1,2,3]triazol-5-yl)-3-(4-methyl-3-(((*R)-7a-methyl-5,5-dioxido-7a,8,9,10-tetrahydropyrido[2,3-f]pyrrolo[2,1-d][1,2,5]thiadiazepin-6(7H)-yl)methyl)phenyl)propanoic Acid], in assay [1], the pEC50 is 6.24. For the same molecule, the pKd in assay [2] was 7.72.
As for `Cc1ccc(C(CC(=O)O)c2ccn3c(C(F)(F)F)nnc3c2C)nc1CN1C[C@@H]2CCCCN2c2ncccc2S1(=O)=O` (stereo in doubt) [Example 478, 3-(6-(((*S)-5,5-Dioxido-7,7a,8,9,10,11-hexahydro-6H-dipyrido[2,1-d:2′,3′-f][1,2,5]thiadiazepin-6-yl)methyl)-5-methylpyridin-2-yl)-3-(8-methyl-3-(trifluoromethyl)-[1,2,4]triazolo[4,3-a]pyridin-7-yl)propanoic Acid], in assay [1], the pEC50 was 7.24. Besides, the negative logarithm of the Kd (pKd) in assay [2] was more than 9.00.
In the case of `Cc1ccc([C@H](CC(=O)O)c2ccc3c(nnn3C3CC3)c2C)cc1CN1C[C@@]2(C)CCCN2c2ncccc2S1(=O)=O` (single isomer, unassigned) [Example 222, (*S)-3-(1-Cyclopropyl-4-methyl-1H-benzo[d][1,2,3]triazol-5-yl)-3-(4-methyl-3-(((*R)-7a-methyl-5,5-dioxido-7a,8,9,10-tetrahydropyrido[2,3-f]pyrrolo[2,1-d][1,2,5]thiadiazepin-6(7H)-yl)methyl)phenyl)propanoic Acid], the pEC50 in assay [1] was 6.46. In assay [2], the pKd is 7.85.
As to `Cc1cnc2c(c1)S(=O)(=O)N(Cc1nc([C@H](CC(=O)O)c3ccn4c(C(F)(F)F)nnc4c3C)ccc1C)C[C@H]1CCCCN21` (single isomer, unassigned) [Example 492, (*R)-3-(8-Methyl-3-(trifluoromethyl)-[1,2,4]triazolo[4,3-a]pyridin-7-yl)-3-(5-methyl-6-(((*R)-3-methyl-5,5-dioxido-7,7a,8,9,10,11-hexahydro-6H-dipyrido[2,1-d:2′,3′-f][1,2,5]thiadiazepin-6-yl)methyl)pyridin-2-yl)propanoic Acid], the pEC50 in assay [1] was 7.89. In addition, the pKd in assay [2] was more than 9.00.
Molecule `Cc1ccc([C@@H](CC(=O)O)c2ccc3c(nnn3C3CC3)c2C)cc1CN1C[C@H]2CCCCN2c2ncccc2S1(=O)=O` (single isomer, unassigned) [Example 213, (*R)-3-(1-Cyclopropyl-4-methyl-1H-benzo[d][1,2,3]triazol-5-yl)-3-(3-(((*R)-5,5-dioxido-7,7a,8,9,10,11-hexahydro-6H-dipyrido[2,1-d:2′,3′-f][1,2,5]thiadiazepin-6-yl)methyl)-4-methylphenyl)propanoic Acid] had a pEC50 in assay [1] of 8.10. For the same molecule, the pKd in assay [2] was more than 9.00.
With `CC[C@@H]1CN(Cc2cc([C@@H](CC(=O)O)c3ccn4c(C(F)F)nnc4c3C)ccc2C)S(=O)(=O)c2cccnc2O1` (single isomer, unassigned) [Example 465, (*R)-3-(3-(Difluoromethyl)-8-methyl-[1,2,4]triazolo[4,3-a]pyridin-7-yl)-3-(3-(((R)-4-ethyl-1,1-dioxido-3,4-dihydro-2H-pyrido[2,3-b][1,4,5]oxathiazepin-2-yl)methyl)-4-methylphenyl)propanoic Acid], in assay [1], the pEC50 was 6.81. The pKd in assay [2] was more than 9.00.
The like results for `Cc1ccc(C(CC(=O)O)c2ccn3c(C(F)(F)F)nnc3c2C)cc1CN1C[C@H]2CN(C)CCN2c2ncccc2S1(=O)=O` (mixture of isomers) [Example 180, (R/S)-3-(4-Methyl-3-(((*R)-9-methyl-5,5-dioxido-7,7a,8,9,10,11-hexahydro-6H-pyrazino[2,1-d]pyrido[2,3-f][1,2,5]thiadiazepin-6-yl)methyl)phenyl)-3-(8-methyl-3-(trifluoromethyl)-[1,2,4]triazolo[4,3-a]pyridin-7-yl)propanoic Acid] were, in that order, 5.54 and 6.72.
`Cc1ccc(C(CC(=O)O)c2ccn3c(C(F)F)nnc3c2C)cc1CN1CC2(CCOCC2)Oc2ncc(F)cc2S1(=O)=O` (stereo not shown) [Example 532, 3-(3-(Difluoromethyl)-8-methyl-[1,2,4]triazolo[4,3-a]pyridin-7-yl)-3-(3-((8′-fluoro-1′,1′-dioxido-2,3,5,6-tetrahydrospiro[pyran-4,4′-pyrido[2,3-b][1,4,5]oxathiazepin]-2′(3′H)-yl)methyl)-4-methylphenyl)propanoic Acid] showed a pEC50 in assay [1] of 7.38. The pKd in assay [2] was more than 9.00.
The like results for `Cc1ccc([C@H](CC(=O)O)c2ccn3c(C(F)(F)F)nnc3c2)cc1CN1C[C@@H]2CCCN2c2ncccc2S1(=O)=O` (single isomer, unassigned) [Example 254, (*S)-3-(3-(((S)-5,5-Dioxido-7a,8,9,10-tetrahydropyrido[2,3-f]pyrrolo[2,1-d][1,2,5]thiadiazepin-6(7H)-yl)methyl)-4-methylphenyl)-3-(3-(trifluoromethyl)-[1,2,4]triazolo[4,3-a]pyridin-7-yl)propanoic Acid] were, in that order, 5.47 and more than 9.00.
Molecule `Cc1cnc2c(c1)S(=O)(=O)N(Cc1cc(C(c3ccn4c(C5CC5)nnc4c3C)C(C)(C)C(=O)O)ccc1C)CC1(CC1)O2` (racemic) [Example 391, (R/S)-3-(3-Cyclopropyl-8-methyl-[1,2,4]triazolo[4,3-a]pyridin-7-yl)-2,2-dimethyl-3-(4-methyl-3-((8′-methyl-1′,1′-dioxidospiro[cyclopropane-1,4′-pyrido[2,3-b][1,4,5]oxathiazepin]-2′(3′H)-yl)methyl)phenyl)propanoic Acid] had a pEC50 in assay [1] of 7.57. Moreover, the pKd in assay [2] was more than 9.00.
Molecule `Cc1ccc([C@H](CC(=O)O)c2ccn3c(C(F)(F)F)nnc3c2C)nc1CN1CC2(COC2)Oc2ccccc2S1(=O)=O` (single isomer, unassigned) [Example 486, (*R)-3-(6-((1,1-dioxidospiro[benzo[b][1,4,5]oxathiazepine-4,3′-oxetan]-2(3H)-yl)methyl)-5-methylpyridin-2-yl)-3-(8-methyl-3-(trifluoromethyl)-[1,2,4]triazolo[4,3-a]pyridin-7-yl)propanoic Acid] showed a pEC50 in assay [1] of 6.48. The pKd in assay [2] was 8.74.
For the molecule `CCc1nnc2c(C)c([C@H](CC(=O)O)c3ccc(C)c(CN4C[C@H]5CCCN5c5ccccc5S4(=O)=O)c3)ccn12` (single isomer, unassigned) [Example 280, (*R)-3-(3-(((R)-5,5-Dioxido-7a,8,9,10-tetrahydrobenzo[f]pyrrolo[2,1-d][1,2,5]thiadiazepin-6(7H)-yl)methyl)-4-methylphenyl)-3-(3-ethyl-8-methyl-[1,2,4]triazolo[4,3-a]pyridin-7-yl)propanoic Acid], the pEC50 in assay [1] is 5.40. The pKd in assay [2] is more than 9.00.
